Key:
AmGr10 [1] = target: T1, AmGr10 (Apis mellifera, UniProt A0A7M6W8K8); assay: Two-electrode voltage-clamp recording of Xenopus oocytes expressing AmGr10; type: cell-based; conditions: for Response of oocytes injected with AmGr10 cRNA (in words): holding potential -70 mV; for Threshold concentration on Xenopus oocytes expressed AmGr10: in vitro
Description: Full-length coding sequences of the AmGr10 cDNA were first cloned into pGEM-T easy vector (Promega, Madison, USA) and then subcloned into the pSDTF vector. In vitro transcription of cRNA was performed by using the mMESSAGE mMACHINE SP6 Kit (Ambion, Austin, TX, USA) according to the manufacturer’s protocol. Plasmids were linearized with EcoR1, and capped cRNA was transcribed using SP6 RNA polymerase. The cRNA was purified, resuspended in nuclease-free water at a concentration of 1 μg/μl, and stored at −80 °C in aliquots. Mature oocytes were freed from the follicle cells by treatment with collagenase A for 1 h at room temperature and incubated for 24 hours in modified Barth’s solution[16]. […] The oocytes were then incubated at 17 °C for 3~5 days in Barth’s solution. The two-electrode voltage-clamp technique was employed to observe tastant-induced currents at a holding potential of −70 mV.

AmGr10 [2] = target: T1, AmGr10; assay: Intracellular calcium assay (Fluo-4) in HEK 293 cells expressing AmGr10; type: cell-based; conditions: for Response of HEK 293 cells expressing AmGr10 (in words): 100 mM of amino acid
Description: (§1) The expression vector was synthesized by inserting the cDNA of AmGr10 (Apis mellifera Gustatory receptor 10) into the multiple cloning site of the pcDNA3.1 vector using the restriction enzymes EcoRI and NotI (Koscamco, Anyang, Korea). Template pDNA for pcDNA3.1-AmGr10 and primers were then mixed with kit solutions. The total PCR volume and conditions were followed as described previously. 2.5 µg of the vector with AmGr10 was transfected into the HEK 293 cells using Lipofectamine 2000 (Invitrogen, CA, USA). The transfection method was according to the manufacturer’s manual. In brief, the Opti-MEM (Invitrogen, CA, USA) was mixed with Lipofectamine at the rate of 6 μL in 125 μL Opti-MEM. It was incubated for 5 min at room temperature. The plasmid DNA (2.5 μg) also was blended with 125 μL Opti-MEM media. These were combined and incubated for 20 min at room temperature. The solution was applied on the HEK cells. After 24 h, the transfected cells were selected using 200 µg/ml zeocin.
For calcium signaling assays, HEK 293 cells expressing AmGr10 were cultured for more than 3 days, and the Fluo-4 AM dye mix solution (Molecular probes) was loaded into the cell in 96-well microplate. […] To normalize the response, the changes in the fluorescence ratio were divided by the maximal fluorescence changes induced by each compound.

hT1R1/hT1R3 = conditions: cited from earlier work
human = test system: human; set-up: method as in PMID 24214976; conditions: at high concentrations; cited from earlier work
[3] = test system: sensilla chaetica on the galea; assay: Tip recording from galeal sensilla chaetica of honey bee; type: in vivo, Apis mellifera; conditions: for Response of sensilla chaetica on the galea (in words): tip recording; for Responses during 1 sec of stimulation: sensilla chaetica on the galea; for Threshold concentration necessary for tip recording: honey bee mouthparts in vivo
Description: Tip recording® experiments were amplified and recorded from the left galea of the proboscis in honey bee mouthparts with IDAC4 with Autospikes software (Syntech, Hilversum, The Netherlands). Bees were immobilized by cooling on ice, restrained in a pipette tip, holding head and appendages in place for electrophysiological measurements. Recordings from gustatory sensilla in galea were made from so-called sensilla chaetica[81] at the tip of galea devoid of olfactory sensilla. These sensilla can be easily identified by their external morphology. A grounded reference electrode filled with 1 mM KCl was inserted into the compound eye. L-glutamate and L-aspartate were selected for tip recording testing and are common amino acids in plant pollen. For stimulation, 1 mM KCl with […] concentrations of 100 mM and 1 mM KCl alone were used. Stimuli were applied for approximately 5 s with an inter-stimulus interval of 3 min. […] These sensilla were excluded from the data analysis. The responses of galeal sensilla to all tested solutions were quantified by counting the number of spikes after stimulus onset.

AmGr1 = test system: AmGr1; set-up: method as in earlier work; conditions: cited from earlier work
AmGr10 [4] = target: T1, AmGr10; assay: Calcium imaging of HEK 293 cells expressing AmGr10; type: cell-based; conditions: for Real time calcium imaging response: 50 μm amino acid alone, Videos S1, S2; for Real time calcium imaging response with IMP: 50 μm amino acid with 2 μm of IMP, Videos S3, S4
Description: as §1
Transfected cell lines were subsequently cultured on dishes suitable for confocal microscopy (SPL, Pocheon, Korea). Before each experiment, the culture medium was removed and washed once in Hansk’s balanced salt solution (assay buffer). Transfected cells were loaded with calcium dye Fluo-4 AM (Molecular probes, USA), 2 μM in assay buffer to the dish, after which the cells were incubated in the dark for 90 min at room temperature. After incubation, 1X HBSS buffer was added to the confocal dish, which was then directly placed in the LSM700 inverted confocal microscope for observation (Zeiss, Oberkochen, Germany). Images were captured with a maximum of 100 frames per two-second interval. Test chemicals were dissolved in HBSS at various concentrations. Calcium influx into the transfected cells upon ligand binding was monitored and analyzed with ZEN software (Zeiss, Oberkochen, Germany). For data analysis, response refers to the number of cells responding in a field of about 300 transfected cells. Cells were counted as responders if the F ratio increased above 0.27 after addition of tastants.

AmGr3 = test system: AmGr3; set-up: method as in PMID 28403157, PMID 29194737; conditions: cited from earlier work
[5] = test system: non-transfected HEK 293 cells; assay: Calcium imaging of non-transfected HEK 293 cells (control); type: cell-based; conditions: Fig. S6
Description: Test chemicals were dissolved in HBSS at various concentrations.

T1 sequence (A0A7M6W8K8 entry or part of it): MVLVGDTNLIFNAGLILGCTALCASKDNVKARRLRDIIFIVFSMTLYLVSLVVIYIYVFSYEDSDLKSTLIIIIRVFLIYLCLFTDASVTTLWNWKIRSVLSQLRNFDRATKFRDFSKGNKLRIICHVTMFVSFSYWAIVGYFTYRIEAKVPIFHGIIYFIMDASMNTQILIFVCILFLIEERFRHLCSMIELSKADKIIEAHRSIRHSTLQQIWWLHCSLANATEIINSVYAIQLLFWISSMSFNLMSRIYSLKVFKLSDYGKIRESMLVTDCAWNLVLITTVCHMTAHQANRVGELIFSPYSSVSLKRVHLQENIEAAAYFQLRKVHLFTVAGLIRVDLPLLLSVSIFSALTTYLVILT

SMILES: NC(=O)CC[C@H](N)C(=O)O [L-glutamine, L-Glutamine]
- Response of oocytes injected with AmGr10 cRNA (in words) (AmGr10 [1]): responsive
- Response of HEK 293 cells expressing AmGr10 (in words) (AmGr10 [2]): significant responses
- Response of hT1R1/hT1R3 (hT1R1/hT1R3): slight but significant responses
- Umami taste in human sensory tests (human): weak umami taste

SMILES: N[C@@H](CO)C(=O)O [L-serine, L-Serine]
- Response of hT1R1/hT1R3 (hT1R1/hT1R3): slight but significant responses

SMILES: OC[C@H]1O[C@@](CO)(O[C@H]2O[C@H](CO)[C@@H](O)[C@H](O)[C@H]2O)[C@@H](O)[C@@H]1O [sucrose, Sucrose]
- Response of sensilla chaetica on the galea (in words) [3]: sensitive
- Response of AmGr1 (AmGr1): responded

SMILES: N=C(N)NCCC[C@H](N)C(=O)O [L-arginine, L-Arginine]
- Response of oocytes injected with AmGr10 cRNA (in words) (AmGr10 [1]): responsive
- Response of HEK 293 cells expressing AmGr10 (in words) (AmGr10 [2]): significant responses
- Response of hT1R1/hT1R3 (hT1R1/hT1R3): slight but significant responses
- Umami taste in human sensory tests (human): weak umami taste

SMILES: N[C@@H](CCC(=O)O)C(=O)O [L-glutamate, L-Glutamic acid]
- Responses during 1 sec of stimulation ([3]; 100 mM): 27 spikes
- Responses during 1 sec of stimulation ([3]; 200 mM): 55 spikes
- Responses during 1 sec of stimulation ([3]; concentration of 50 mM): 15 spikes
- Threshold concentration necessary for tip recording [3]: ~ 50 mM
- Response of sensilla chaetica on the galea (in words) [3]: responded
- Response of oocytes injected with AmGr10 cRNA (in words) (AmGr10 [1]): responsive
- Threshold concentration on Xenopus oocytes expressed AmGr10 (AmGr10 [1]): ~ 10 mM
- Response of HEK 293 cells expressing AmGr10 (in words) (AmGr10 [2]): highest responses
- Real time calcium imaging response (AmGr10 [4]): clearly showed calcium responses
- Real time calcium imaging response with IMP (AmGr10 [4]): clearly showed enhanced response

SMILES: OC[C@H]1O[C@H](O[C@H]2[C@H](O)[C@@H](O)C(O)O[C@@H]2CO)[C@H](O)[C@@H](O)[C@@H]1O (mixture of isomers) [maltose]
- Response of AmGr1 (AmGr1): responded

SMILES: N[C@@H](CC(=O)O)C(=O)O [L-aspartate, L-Aspartic acid]
- Responses during 1 sec of stimulation ([3]; 100 mM): 22 spikes
- Responses during 1 sec of stimulation ([3]; 200 mM): 51 spikes
- Responses during 1 sec of stimulation ([3]; concentration of 50 mM): 6 spikes
- Threshold concentration necessary for tip recording [3]: ~ 50 mM
- Response of sensilla chaetica on the galea (in words) [3]: responded
- Response of oocytes injected with AmGr10 cRNA (in words) (AmGr10 [1]): responsive
- Threshold concentration on Xenopus oocytes expressed AmGr10 (AmGr10 [1]): ~ 10 mM
- Response of HEK 293 cells expressing AmGr10 (in words) (AmGr10 [2]): highest responses
- Real time calcium imaging response (AmGr10 [4]): clearly showed calcium responses
- Real time calcium imaging response with IMP (AmGr10 [4]): clearly showed enhanced response

SMILES: O=C(CO)[C@@H](O)[C@H](O)[C@H](O)CO [fructose]
- Response of AmGr1 (AmGr1): not
- Response of AmGr3 (AmGr3): responds only

SMILES: OC[C@H]1O[C@H](O[C@H]2O[C@H](CO)[C@@H](O)[C@H](O)[C@H]2O)[C@H](O)[C@@H](O)[C@@H]1O [trehalose]
- Response of AmGr1 (AmGr1): responded

SMILES: N[C@@H](CCC(=O)O)C(=O)[O-].[Na+] [MSG, L-Glutamic acid monosodium salt]
- Response to MSG of AmGr10-transfected HEK 293 cells vs non-transfected (AmGr10 [2]; concentration steps, Fig. S5): significantly increased
- Sensitivity of HEK 293 cells expressing hT1R1/hT1R3 (hT1R1/hT1R3; unlike non-transfected HEK 293 cells): significantly sensitive

SMILES: CNc1ccc2oc(C[C@@H]3OC4(CC[C@@H]3C)O[C@H](C(C)C(=O)c3ccc[nH]3)[C@H](C)C[C@H]4C)nc2c1C(=O)O (stereo partly drawn) [calcium ionophore]
- Calcium influx in non-transfected HEK 293 cells [5]: activated

SMILES: NCCCC[C@H](N)C(=O)O [L-lysine, L-Lysine]
- Response of oocytes injected with AmGr10 cRNA (in words) (AmGr10 [1]): responsive
- Response of HEK 293 cells expressing AmGr10 (in words) (AmGr10 [2]): significant responses

SMILES: N[C@@H](Cc1c[nH]cn1)C(=O)O [L-histidine, L-Histidine]
- Response of hT1R1/hT1R3 (hT1R1/hT1R3): slight but significant responses

SMILES: OC[C@H]1OC(O)[C@H](O)[C@@H](O)[C@@H]1O (stereo partly drawn) [glucose]
- Response of AmGr1 (AmGr1): responded

SMILES: Cn1c(=O)c2c(ncn2C)n(C)c1=O [caffeine]
- Response of oocytes injected with AmGr10 cRNA (in words) (AmGr10 [1]): not

SMILES: NC(CCP(=O)(O)O)C(=O)O [L-AP4]
- AmGr10 response in presence of purine nucleotides (AmGr10 [4]; amino acids 50 mM, IMP 2 mM): greatly enhanced

SMILES: NC(=O)C[C@H](N)C(=O)O [L-asparagine, L-Asparagine]
- Response of oocytes injected with AmGr10 cRNA (in words) (AmGr10 [1]): responsive
- Response of HEK 293 cells expressing AmGr10 (in words) (AmGr10 [2]): significant responses
- Response of hT1R1/hT1R3 (hT1R1/hT1R3): slight but significant responses
- Umami taste in human sensory tests (human): weak umami taste

SMILES: C[C@H](N)C(=O)O [L-Ala]
- Response of hT1R1/hT1R3 (hT1R1/hT1R3): slight but significant responses

SMILES: Nc1nc2c(ncn2[C@@H]2O[C@H](COP(=O)(O)O)[C@@H](O)[C@H]2O)c(=O)[nH]1 [GMP, Guanosine 5′-monophosphate]
- Effect of GMP on responses to non-amino acid stimulus sucrose ([3]; 2 mM GMP): no significant effect
- Effect of GMP on nerve-firing rates to amino acids ([3]; 2 mM GMP, 50 mM amino acids): significantly enhanced
